We go through eleven compounds from ChEMBL document CHEMBL1201862, “PubChem BioAssay data set” (2004).

Among the test systems are 786-0; A549; COLO 205; DU-145; HCC 2998; HOP-92; K562; KM12; M14; NCI-H226; NCI-H522; OVCAR-4; OVCAR-8; PC-3; RXF 393; SK-MEL-28; SR; SW-620; UO-31.
Common to all, as to experiment: NCI tumour cell line growth inhibition, 48 h

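Briefly, cells in 96-well plates were exposed to five compound concentrations for 48 h, and endpoints were estimated by linear interpolation. GI50 is the concentration that inhibits growth by half.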 Active and inactive are the calls of the source. Rule as the data show it: active = GI50 up to about 1.1 µM and inactive = higher.

Consider `CSc1ccc(NC(=O)C2CCCCC2C(=O)O)cc1` (stereo not drawn), for which the GI50 in the experiment with 786-0, in the experiment with A549, with COLO 205, in the experiment with DU-145, in the experiment on HCC 2998 and in the experiment with HOP-92 was > 100 µM (inactive) throughout. Also, the GI50 in the experiment with K562, with KM12, with M14, with NCI-H226, with NCI-H522 and with OVCAR-4 was > 100 µM (inactive) throughout. The GI50 in the experiment with OVCAR-8, in the experiment with PC-3, in the experiment on RXF 393, with SK-MEL-28, in the experiment with SR and in the experiment with SW-620 was > 100 µM (inactive) each time. Further, the GI50 in the experiment with UO-31 is > 100 µM (inactive).

`COc1cc2c(cc1O)[C@@H]1Cc3c(cc(OC)c(OC)c3Oc3cc4c(cc3OC)CCN(C)[C@@H]4Cc3ccc(O)cc3)[C@H](C2)N1C`: the GI50 is 36.6 µM (inactive) in the experiment on 786-0; > 100 µM (inactive) in the experiment on A549; 19.4 µM (inactive) in the experiment on COLO 205; > 100 µM (inactive) in the experiment on DU-145; 31 µM (inactive) in the experiment with HCC 2998; 37.9 µM (inactive) with HOP-92. The GI50 with K562 is 20.3 µM (inactive); in the experiment on KM12, 45.1 µM (inactive); with M14 it was 18.2 µM (inactive); in the experiment with NCI-H226, > 100 µM (inactive); in the experiment on NCI-H522, 27.7 µM (inactive); with OVCAR-4 it was 33 µM (inactive). For the same compound, the GI50 in the experiment with OVCAR-8 was 53 µM (inactive); in the experiment with PC-3, 36.2 µM (inactive); in the experiment with RXF 393 it was 2.1 µM (inactive); with SK-MEL-28, 18.6 µM (inactive); in the experiment on SR, 13 µM (inactive); in the experiment with SW-620 it was 36.6 µM (inactive). Also, the GI50 in the experiment with UO-31 was > 84.9 µM (inactive).

Take `COc1ccc(/C=N/c2nc3cc4sc(/N=C/c5ccc(OC)cc5)nc4cc3s2)cc1`: the GI50 in the experiment with 786-0 is > 76.4 µM (inactive); in the experiment with A549 it was 8 µM (inactive); with COLO 205 it was 3.66 µM (inactive); with DU-145 it was > 23.7 µM (inactive); in the experiment with HCC 2998, 24.7 µM (inactive); in the experiment with HOP-92, > 78.9 µM (inactive). The GI50 with K562 was 34 µM (inactive); with KM12, 34.1 µM (inactive); in the experiment with M14 it was 58.2 µM (inactive); in the experiment on NCI-H226 it was 24.9 µM (inactive); with NCI-H522, 10.4 µM (inactive); in the experiment on OVCAR-4 it was 57.4 µM (inactive). In addition, the GI50 with OVCAR-8 is > 60.5 µM (inactive); in the experiment with PC-3, > 81.7 µM (inactive); in the experiment on RXF 393, > 57.9 µM (inactive); with SK-MEL-28, > 86.1 µM (inactive); with SR, 22.9 µM (inactive); with SW-620, 12.8 µM (inactive). In the experiment on UO-31, the GI50 was 55.7 µM (inactive).

For the compound `COC(=O)C1=C(O)C(C(=O)OC)[C@]2(O)[C@H](C(=O)OC)[C@H]1C[C@@H](c1ccc(Cl)cc1)[C@H]2C(=O)OC` (stereo partly drawn), the GI50 with 786-0 was 6.41 µM (inactive); in the experiment with A549, 5.64 µM (inactive); in the experiment on COLO 205 it was 10 µM (inactive); with DU-145, 7.11 µM (inactive); in the experiment on HCC 2998 it was 6.79 µM (inactive); in the experiment with HOP-92, 19.3 µM (inactive). Besides, the GI50 in the experiment on K562 is 4.27 µM (inactive); with KM12, 11.5 µM (inactive); with M14, 4.72 µM (inactive); in the experiment with NCI-H226, 8.18 µM (inactive); in the experiment on OVCAR-4 it was 11.1 µM (inactive); with OVCAR-8 it was 5.89 µM (inactive). Also, the GI50 with PC-3 is 4.65 µM (inactive); in the experiment on RXF 393, 4.62 µM (inactive); in the experiment on SK-MEL-28, 9.06 µM (inactive); in the experiment on SR, 4.17 µM (inactive); in the experiment on SW-620, 7.29 µM (inactive); in the experiment on UO-31, 8.97 µM (inactive).

`Cc1c2c3ccccc3nc-2n(C)c2ccccc12`: the GI50 in the experiment on 786-0 is 2.02 µM (inactive); in the experiment with A549, 1.57 µM (inactive); in the experiment on DU-145, 3.67 µM (inactive); with HCC 2998 it was 2.64 µM (inactive); with HOP-92, 2.61 µM (inactive); with K562, 1.3 µM (inactive). For the same compound, the GI50 is 1.15 µM (inactive) with KM12; 3.48 µM (inactive) in the experiment with M14; 2.77 µM (inactive) in the experiment on NCI-H226; 1.69 µM (inactive) in the experiment on OVCAR-8; 2.17 µM (inactive) with PC-3; 1.99 µM (inactive) in the experiment with RXF 393. Also, the GI50 with SK-MEL-28 is 3.42 µM (inactive); in the experiment with SR, 1.44 µM (inactive); in the experiment on SW-620, 1.11 µM (active); in the experiment with UO-31, 1.79 µM (inactive).

With `CCC(C#N)N(Cc1ccc(CN(C(=O)c2ccccc2)C(C#N)CC)cc1)C(=O)c1ccccc1` (stereo not drawn), the GI50 in the experiment with 786-0 was 19.2 µM (inactive); in the experiment with A549, 20.6 µM (inactive); with COLO 205 it was 14.7 µM (inactive); with DU-145, 28.6 µM (inactive); in the experiment on HCC 2998 it was 14.6 µM (inactive); with HOP-92 it was 13.2 µM (inactive). The GI50 in the experiment with K562 was 13.9 µM (inactive); in the experiment on KM12 it was 21.7 µM (inactive); in the experiment with M14, 36.6 µM (inactive); in the experiment on NCI-H226, 32.5 µM (inactive); in the experiment with NCI-H522 it was 23 µM (inactive); in the experiment with OVCAR-4, 17.4 µM (inactive). Besides, the GI50 with OVCAR-8 was 31.6 µM (inactive); in the experiment with PC-3, 26 µM (inactive); with RXF 393, 28.1 µM (inactive); in the experiment with SR it was 54.6 µM (inactive); with SW-620, 28.5 µM (inactive); with UO-31 it was 19.7 µM (inactive).

`Nc1nc(O)c([I+]c2ccccc2)c(=O)[nH]1`: the GI50 in the experiment on 786-0, with A549, with COLO 205, in the experiment on DU-145, in the experiment on HCC 2998 and in the experiment on HOP-92 was > 100 µM (inactive) each time. The GI50 in the experiment with K562, in the experiment with KM12, with NCI-H226, with NCI-H522, in the experiment on OVCAR-4 and in the experiment with OVCAR-8 was > 100 µM (inactive) in each case. In addition, the GI50 is > 100 µM (inactive) in the experiment on PC-3; > 100 µM (inactive) in the experiment on RXF 393; > 100 µM (inactive) in the experiment on SK-MEL-28; > 100 µM (inactive) in the experiment on SR; > 100 µM (inactive) in the experiment on SW-620; 85.1 µM (inactive) with UO-31.

`Cn1c(-c2ccccc2)cc(-c2ccc3c(c2)OCO3)c1-c1ccsc1`: the GI50 in the experiment with 786-0, with A549, in the experiment on COLO 205, in the experiment with DU-145, with HCC 2998 and with HOP-92 was > 100 µM (inactive) in each case. The GI50 with K562, in the experiment with KM12, with M14, in the experiment with NCI-H226, in the experiment on OVCAR-4 and in the experiment with OVCAR-8 was > 100 µM (inactive) in each case. Also, the GI50 in the experiment on PC-3, in the experiment with RXF 393, in the experiment with SK-MEL-28, in the experiment on SR, in the experiment with SW-620 and in the experiment with UO-31 was > 100 µM (inactive) in each case.

Take `CCOC(=O)c1sc2nc(SC)nc(Nc3ccc4c(c3)OCO4)c2c1N`: the GI50 in the experiment on 786-0 is 21.6 µM (inactive); with A549, 68.9 µM (inactive); in the experiment with COLO 205, > 100 µM (inactive); in the experiment on DU-145, 35.8 µM (inactive); with HCC 2998 it was > 100 µM (inactive); in the experiment with HOP-92, 17.4 µM (inactive). The GI50 in the experiment with K562 is 81.1 µM (inactive); in the experiment with KM12, > 100 µM (inactive); with M14 it was 41.9 µM (inactive); with NCI-H226 it was 71.3 µM (inactive); in the experiment with NCI-H522, 46.7 µM (inactive); with OVCAR-4, 37.7 µM (inactive). The GI50 was 37.8 µM (inactive) in the experiment with PC-3; 10.9 µM (inactive) with RXF 393; 1.91 µM (inactive) with SK-MEL-28; > 100 µM (inactive) in the experiment with SR; 4.34 µM (inactive) in the experiment on SW-620; 71.3 µM (inactive) in the experiment with UO-31.

In the case of `COc1ccc(-n2c(N)c(C#N)c(C#N)c2-c2ccco2)cc1`, the GI50 in the experiment on 786-0 was > 100 µM (inactive); in the experiment with A549, > 100 µM (inactive); in the experiment on COLO 205 it was > 100 µM (inactive); in the experiment on DU-145, > 100 µM (inactive); in the experiment on HCC 2998, > 100 µM (inactive); with HOP-92, 16.8 µM (inactive). Besides, the GI50 in the experiment with K562 was 59.7 µM (inactive); in the experiment on KM12, > 100 µM (inactive); in the experiment on M14 it was > 100 µM (inactive); with NCI-H226, > 100 µM (inactive); with NCI-H522, 46.7 µM (inactive); in the experiment with OVCAR-4 it was 23.3 µM (inactive). Further, the GI50 in the experiment with OVCAR-8 is > 100 µM (inactive); in the experiment on PC-3, 46.3 µM (inactive); in the experiment with RXF 393, > 100 µM (inactive); with SR it was > 100 µM (inactive); with SW-620 it was > 100 µM (inactive); with UO-31, 82.8 µM (inactive).

In the case of `Cc1nc(O)nc(NNCc2ccc(Cl)cc2)c1C(=O)Nc1ccc(Cl)cc1`, the GI50 in the experiment with 786-0 is > 100 µM (inactive); with A549 it was > 100 µM (inactive); in the experiment with COLO 205, > 100 µM (inactive); in the experiment with DU-145 it was 29.4 µM (inactive); in the experiment on HCC 2998, > 100 µM (inactive); in the experiment on HOP-92 it was > 100 µM (inactive). The GI50 with KM12, in the experiment with M14, in the experiment on NCI-H226, in the experiment on OVCAR-4, with OVCAR-8 and in the experiment on PC-3 was > 100 µM (inactive) each time. In addition, the GI50 in the experiment with RXF 393, in the experiment with SK-MEL-28, with SR, in the experiment on SW-620 and with UO-31 was > 100 µM (inactive) each time.
